Laboratory results published in ChEMBL document CHEMBL1201862, “PubChem BioAssay data set” (2004).
Activity calls are given as the source filed them.

Key:
[1] = target: Sphingosine 1-phosphate receptor 2 (Homo sapiens, UniProt O95136); assay: Dose Response Cell Based Assay for Antagonists of the S1P2 Receptor. [Related pubchem assays: 856, 736 ]; format: functional
[2] = viability loss in HepG2 liver cells – cell-based, luminescence, dry powder, set 9, cytotoxicity control, dose response (AID 743358); format: functional
[3] = IC50 of insulin release inhibition, rat insulinoma INS-1E line, 5 mM glucose, cell-based (AID 1117331); format: functional
cells = format: functional, cell-based; conditions: INS-1E
[4] = target: Glucose-6-phosphate 1-dehydrogenase (Homo sapiens, UniProt P11413); assay: inhibition of Homo sapiens G6PD, dose series – biochemical, fluorescence, selectivity assay for P. falciparum G6PD inhibitor project, dose response (AID 504792); format: functional
Glucose-6-phosphate 1-dehydrogenase, sequence (P11413 whole entry): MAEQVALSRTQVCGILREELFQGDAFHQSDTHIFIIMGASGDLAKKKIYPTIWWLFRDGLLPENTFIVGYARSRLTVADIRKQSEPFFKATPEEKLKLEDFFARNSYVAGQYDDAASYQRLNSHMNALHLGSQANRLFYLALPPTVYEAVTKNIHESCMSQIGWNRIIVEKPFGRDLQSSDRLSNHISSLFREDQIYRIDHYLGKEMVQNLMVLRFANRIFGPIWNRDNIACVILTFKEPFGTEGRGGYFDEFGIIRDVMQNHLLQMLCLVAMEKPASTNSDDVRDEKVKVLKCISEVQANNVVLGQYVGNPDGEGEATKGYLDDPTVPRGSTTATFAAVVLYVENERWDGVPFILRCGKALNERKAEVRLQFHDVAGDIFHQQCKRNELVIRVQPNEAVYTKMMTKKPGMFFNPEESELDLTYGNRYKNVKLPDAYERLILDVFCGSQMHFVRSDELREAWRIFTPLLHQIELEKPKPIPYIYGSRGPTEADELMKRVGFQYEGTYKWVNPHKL

[5] = Reduced DLD-1 viability, concentration-response, CellTiter-Glo luminescence (AID 1117352); format: functional
[6] = cytotoxicity toward HCT116 cells – cell-based, CellTiter-Glo luminescence, IC50, dose response (AID 1117332); format: functional; conditions: HCT-116
[7] = loss of viability in HepG2 cells – cell-based, CellTiter-Glo, cherry-picked, cytotoxicity control for Shn3 inhibitor project, dose response (AID 624134); format: functional
[8] = cytotoxicity toward Colo320 cells – cell-based, CellTiter-Glo luminescence, IC50, dose response (AID 1117334); format: functional; conditions: COLO 320
[9] = HCT116 cell viability decrease, GSK3B pretreatment – CellTiter-Glo, IC50, dose response (AID 1117339); format: functional; conditions: HCT-116
[10] = reduction of Shn3 3'UTR-driven luciferase in osteoblasts – cell-based, Clone20 osteoblasts, firefly luciferase, cherry-picked, dose response (AID 624132); format: functional;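 note: firefly luciferase luminescence from reporter carrying the Shn3 3'UTR in osteoblasts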
[11] = rise of 4N DNA cells, HeLa – IC50, dose response (AID 1117351); format: functional, cell-based
[12] = rise of 2N DNA cells, HeLa – IC50, dose response (AID 1117349); format: functional, cell-based
[13] = non-specific 3'UTR reporter inhibition in Clone20-Shn3RL – cell-based, Renilla luciferase, cherry-picked, counter-screen for Shn3 inhibitor project, dose response (AID 624133); format: functional
[14] = target: Voltage-gated inwardly rectifying potassium channel KCNH2 (Homo sapiens, UniProt Q12809); assay: concentration-dependent hERG rescue from blockers – cell-based, thallium flux, dose response (AID 2121); format: ADME
[15] = African trypanosome bloodstream form growth inhibition – STIB900 strain, plate reader, cherry pick, dose response (AID 651893); format: functional, cell-based, Trypanosoma brucei rhodesiense; conditions: Trypanosoma brucei
[16] = L6 myocyte viability loss – cell-based, plate reader, cherry-pick, cytotoxicity control, dose response (AID 651896); format: functional
[17] = Trypanosoma cruzi replication inhibitors in host cells – cell-based, plate reader, dry powder samples, dose response (AID 651845); format: functional
[18] = anti-trypanosomal activity in BESM host cells – imaging, CA-I/72 strain, bovine embryo skeletal muscle, dry powder, dose response (AID 651885); format: functional, cell-based
[19] = intracellular Trypanosoma cruzi inhibitors in host cells – cell-based, plate reader, cherry-pick samples, set 3, dose response (AID 651818); format: functional;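 note: compounds incubated with infected cells for about four days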
[20] = Inhibition of T. cruzi Tulahuen strain amastigotes in L-6 muscle cells Measured in Cell-Based and Microorganism Combination System Using Plate Reader - 2138-03_Inhibitor_Dose_CherryPick_Activity.; format: functional; conditions: Rattus norvegicus, L6
[21] = Inhibition of Plasmodium falciparum NF54 Measured in Cell-Based System Using Plate Reader - 2138-11_Inhibitor_Dose_CherryPick_Activity.; format: functional
[22] = antileishmanial activity on axenic amastigotes – plate reader, cherry pick, dose response (AID 651891); format: functional, cell-based; conditions: Leishmania donovani
[23] = T. cruzi growth inhibition in host cells, dose response, cell-based, plate reader, dry powder, set 2 (AID 652275); format: functional
Paired box protein Pax-8 = Paired box protein Pax-8 (Homo sapiens, UniProt Q06710); assay: PAX8 transcriptional activity inhibition in RMG-I – RMG-I cells, luciferase, cherry-pick, dose response (AID 687027); format: functional, cell-based;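 note: luciferase reporter driven by Pax8 target thyroperoxidase promoter measured by SteadyGlo luminescence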
Paired box protein Pax-8, sequence (Q06710 whole entry): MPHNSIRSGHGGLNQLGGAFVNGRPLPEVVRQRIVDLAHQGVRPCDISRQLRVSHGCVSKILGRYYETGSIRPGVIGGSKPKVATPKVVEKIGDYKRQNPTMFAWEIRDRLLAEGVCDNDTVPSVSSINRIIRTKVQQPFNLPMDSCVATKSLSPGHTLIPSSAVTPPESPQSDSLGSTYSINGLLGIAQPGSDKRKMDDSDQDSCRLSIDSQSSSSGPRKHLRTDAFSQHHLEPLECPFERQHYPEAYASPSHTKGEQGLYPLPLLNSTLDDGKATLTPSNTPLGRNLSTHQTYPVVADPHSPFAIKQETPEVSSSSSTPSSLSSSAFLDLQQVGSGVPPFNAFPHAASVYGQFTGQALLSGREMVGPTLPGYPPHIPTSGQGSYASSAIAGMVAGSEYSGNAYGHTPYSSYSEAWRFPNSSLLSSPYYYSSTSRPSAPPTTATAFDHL

[24] = PAX5 cellular inhibition readout – cell-based, plate reader, dry powder samples, selectivity assay for PAX8 inhibitor project, dose response (AID 743047); format: functional;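 note: HEK293 cells carrying a Pax5 driven CD19 promoter luciferase reporter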
[25] = IGROV1 cell killing – plate reader, dry powder samples, PAX8 inhibitor project, dose response (AID 743043); format: functional, cell-based; conditions: IGROV-1
[26] = OV-90 cell viability loss – plate reader, dry powder, SA8, PAX8 inhibitor project, dose response (AID 743149); format: functional, cell-based
[27] = COV434 cell viability loss – plate reader, dry powder, SA7, cytotoxicity control for PAX8 inhibitor project, dose response (AID 743145); format: functional, cell-based
[28] = PAX8-dependent cell viability loss – plate reader, dry powder, dose response (AID 743049); format: functional, cell-based
[29] = inhibitors acting on PAX2 in cells – cell-based, plate reader, dry powder samples, selectivity assay for PAX8 inhibitor project, dose response (AID 743048); format: functional;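 note: HEK293 cells carrying a WT1 promoter luciferase reporter driven by expressed Pax2; potency is for inhibition of Pax2 driven reporter signal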
[30] = target: T1, Aryl hydrocarbon receptor (Homo sapiens, UniProt P35869); assay: Luminescence-based cell-based high throughput dose response assay for activators of the Aryl Hydrocarbon Receptor (AHR). [Related pubchem assays: 2796 (Primary screen (AHR activators in singlicate)), 2845 (Confirmation screen (AHR activators in triplicate)), 434939 (Counterscreen (PXR activators in triplicate)), 2804 (Summary (AHR activators))]; format: ADME
T1 sequence (P35869 whole entry): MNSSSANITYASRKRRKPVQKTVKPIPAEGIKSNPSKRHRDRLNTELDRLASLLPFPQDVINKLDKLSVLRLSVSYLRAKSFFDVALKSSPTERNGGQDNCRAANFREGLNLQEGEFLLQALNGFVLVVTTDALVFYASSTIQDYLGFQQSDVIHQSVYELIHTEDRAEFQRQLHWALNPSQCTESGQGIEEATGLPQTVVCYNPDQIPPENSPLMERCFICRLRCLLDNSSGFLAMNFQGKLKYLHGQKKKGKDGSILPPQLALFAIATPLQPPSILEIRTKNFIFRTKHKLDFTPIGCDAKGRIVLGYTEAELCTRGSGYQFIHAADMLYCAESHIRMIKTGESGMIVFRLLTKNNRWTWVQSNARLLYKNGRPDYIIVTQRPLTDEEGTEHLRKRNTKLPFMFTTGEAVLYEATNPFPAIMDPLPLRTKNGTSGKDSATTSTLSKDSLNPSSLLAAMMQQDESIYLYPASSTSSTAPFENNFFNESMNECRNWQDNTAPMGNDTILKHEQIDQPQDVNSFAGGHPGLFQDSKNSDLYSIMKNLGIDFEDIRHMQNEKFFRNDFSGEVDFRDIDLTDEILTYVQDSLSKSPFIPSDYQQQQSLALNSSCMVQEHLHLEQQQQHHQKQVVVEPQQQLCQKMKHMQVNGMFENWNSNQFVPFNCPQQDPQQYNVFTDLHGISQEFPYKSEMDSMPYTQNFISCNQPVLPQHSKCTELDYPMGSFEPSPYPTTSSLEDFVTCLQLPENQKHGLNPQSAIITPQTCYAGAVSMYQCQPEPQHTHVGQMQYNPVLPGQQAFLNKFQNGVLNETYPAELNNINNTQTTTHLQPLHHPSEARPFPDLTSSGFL

[31] = Luminescence Cell-Based Dose Retest to Confirm Inhibitors of Cancer Stem Cells. [Related pubchem assays (depositor defined):AID2717, AID2721]; format: functional; conditions: Homo sapiens
[32] = target: E3 ubiquitin-protein ligase Mdm2 (Homo sapiens, UniProt Q00987); assay: MDM2-luc reporter signal enhancers, multi-concentration potency testing, MDM2 ubiquitin-protein ligase inhibitor program, whole-cell format, luminescence detection, 384-well microplate (AID 1394); format: functional;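 note: MDM2 E3 inhibitors raise luminescence so EC50 is for signal enhancement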
[33] = target: Ubiquitin carboxyl-terminal hydrolase BAP1 (Homo sapiens, UniProt Q92560); assay: inhibition of BAP1 ubiquitin hydrolase activity – biochemical, dose response (AID 714); format: functional
[34] = target: Peroxisome proliferator-activated receptor gamma/Nuclear receptor corepressor 2 (Homo sapiens, UniProt P37231+Q9Y618); assay: Counterscreen for NR2E3 inverse agonists: TR-FRET-based biochemical high throughput dose response assay to identify inverse agonists of the interaction between peroxisome proliferator-activated receptor gamma (PPARg) and nuclear receptor co-repressor 2 (NCOR2).; format: functional
Peroxisome proliferator-activated receptor gamma/Nuclear receptor corepressor 2, sequence (P37231 whole entry): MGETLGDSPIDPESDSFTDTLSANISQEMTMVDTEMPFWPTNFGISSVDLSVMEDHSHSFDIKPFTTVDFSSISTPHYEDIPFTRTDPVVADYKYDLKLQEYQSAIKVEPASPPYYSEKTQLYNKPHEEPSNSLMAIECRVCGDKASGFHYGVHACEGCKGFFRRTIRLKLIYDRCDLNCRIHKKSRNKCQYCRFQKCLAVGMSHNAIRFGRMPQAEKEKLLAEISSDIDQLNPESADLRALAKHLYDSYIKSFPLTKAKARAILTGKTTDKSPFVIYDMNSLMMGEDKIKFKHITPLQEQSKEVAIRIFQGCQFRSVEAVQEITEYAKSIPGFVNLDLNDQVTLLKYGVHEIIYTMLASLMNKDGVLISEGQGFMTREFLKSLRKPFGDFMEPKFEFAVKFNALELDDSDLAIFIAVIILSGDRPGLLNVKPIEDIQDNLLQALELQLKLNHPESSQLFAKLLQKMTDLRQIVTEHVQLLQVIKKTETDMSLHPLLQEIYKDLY
Peroxisome proliferator-activated receptor gamma/Nuclear receptor corepressor 2, sequence (Q9Y618 whole entry): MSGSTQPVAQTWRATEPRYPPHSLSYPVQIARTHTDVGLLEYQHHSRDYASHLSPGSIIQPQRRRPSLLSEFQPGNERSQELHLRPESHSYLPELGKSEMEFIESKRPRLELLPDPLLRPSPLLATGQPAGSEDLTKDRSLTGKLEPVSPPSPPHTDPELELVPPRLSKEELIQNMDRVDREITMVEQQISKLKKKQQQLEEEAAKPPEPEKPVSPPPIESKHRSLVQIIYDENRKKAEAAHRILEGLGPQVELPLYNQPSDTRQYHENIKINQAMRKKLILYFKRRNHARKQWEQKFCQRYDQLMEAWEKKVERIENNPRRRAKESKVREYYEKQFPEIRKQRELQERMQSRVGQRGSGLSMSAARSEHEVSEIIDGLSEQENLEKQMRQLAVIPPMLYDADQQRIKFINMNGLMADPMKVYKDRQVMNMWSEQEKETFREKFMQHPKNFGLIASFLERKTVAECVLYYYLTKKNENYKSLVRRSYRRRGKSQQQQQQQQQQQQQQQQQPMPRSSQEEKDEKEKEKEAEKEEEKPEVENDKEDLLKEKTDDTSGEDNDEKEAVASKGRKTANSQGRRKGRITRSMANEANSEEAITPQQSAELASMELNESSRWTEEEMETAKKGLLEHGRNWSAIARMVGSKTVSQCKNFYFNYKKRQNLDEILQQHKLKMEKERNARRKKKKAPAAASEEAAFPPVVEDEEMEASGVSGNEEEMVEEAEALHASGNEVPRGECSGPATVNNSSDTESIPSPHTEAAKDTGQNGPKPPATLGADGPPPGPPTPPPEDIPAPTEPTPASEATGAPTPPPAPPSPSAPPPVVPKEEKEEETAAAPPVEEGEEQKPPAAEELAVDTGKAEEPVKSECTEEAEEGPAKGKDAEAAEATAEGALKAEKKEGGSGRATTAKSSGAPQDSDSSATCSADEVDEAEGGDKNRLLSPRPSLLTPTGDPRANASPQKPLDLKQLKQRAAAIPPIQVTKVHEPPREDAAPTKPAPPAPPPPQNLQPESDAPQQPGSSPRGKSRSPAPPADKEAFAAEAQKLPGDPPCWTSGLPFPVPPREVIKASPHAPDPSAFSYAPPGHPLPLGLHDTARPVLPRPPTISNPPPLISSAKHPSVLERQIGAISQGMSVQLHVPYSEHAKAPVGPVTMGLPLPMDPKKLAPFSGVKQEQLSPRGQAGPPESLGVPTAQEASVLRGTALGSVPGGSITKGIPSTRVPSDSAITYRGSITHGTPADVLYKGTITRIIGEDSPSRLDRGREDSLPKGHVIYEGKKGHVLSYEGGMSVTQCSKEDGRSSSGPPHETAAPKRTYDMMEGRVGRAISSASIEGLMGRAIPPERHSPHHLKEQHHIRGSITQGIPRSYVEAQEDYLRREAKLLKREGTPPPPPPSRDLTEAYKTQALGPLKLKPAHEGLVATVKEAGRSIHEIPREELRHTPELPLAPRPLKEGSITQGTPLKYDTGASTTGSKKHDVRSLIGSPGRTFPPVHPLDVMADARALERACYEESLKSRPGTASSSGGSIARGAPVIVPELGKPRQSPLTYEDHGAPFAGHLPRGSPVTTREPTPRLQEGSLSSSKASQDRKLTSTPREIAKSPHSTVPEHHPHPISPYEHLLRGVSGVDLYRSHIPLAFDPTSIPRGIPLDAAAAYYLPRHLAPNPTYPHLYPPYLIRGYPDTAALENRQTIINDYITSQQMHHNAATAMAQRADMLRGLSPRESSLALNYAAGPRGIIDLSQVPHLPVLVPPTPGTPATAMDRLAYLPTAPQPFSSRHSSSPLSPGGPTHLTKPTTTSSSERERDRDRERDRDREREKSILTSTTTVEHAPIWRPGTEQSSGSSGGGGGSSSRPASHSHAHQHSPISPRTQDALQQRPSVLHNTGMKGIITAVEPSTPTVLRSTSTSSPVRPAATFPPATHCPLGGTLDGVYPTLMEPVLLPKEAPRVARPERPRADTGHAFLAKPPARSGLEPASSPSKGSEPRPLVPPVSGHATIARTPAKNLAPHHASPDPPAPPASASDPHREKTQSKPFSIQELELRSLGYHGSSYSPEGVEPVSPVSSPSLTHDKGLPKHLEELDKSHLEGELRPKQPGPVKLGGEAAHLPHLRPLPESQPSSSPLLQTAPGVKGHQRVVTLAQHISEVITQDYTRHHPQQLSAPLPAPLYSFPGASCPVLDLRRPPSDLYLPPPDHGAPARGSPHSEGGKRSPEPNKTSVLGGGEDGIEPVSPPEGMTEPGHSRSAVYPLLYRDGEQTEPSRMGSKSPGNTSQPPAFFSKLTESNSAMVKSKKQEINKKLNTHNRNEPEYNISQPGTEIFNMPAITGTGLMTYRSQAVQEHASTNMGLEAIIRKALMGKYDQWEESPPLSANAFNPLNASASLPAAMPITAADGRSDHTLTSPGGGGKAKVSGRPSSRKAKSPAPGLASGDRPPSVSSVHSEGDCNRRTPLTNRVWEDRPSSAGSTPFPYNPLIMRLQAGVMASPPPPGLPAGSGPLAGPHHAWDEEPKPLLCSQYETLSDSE

[35] = target: Peroxisome proliferator-activated receptor gamma/Nuclear receptor coactivator 3 (Homo sapiens, UniProt P37231); assay: TR-FRET dose response biochemical High Throughput Screening assay for agonists of the steroid receptor coactivator 3 (SRC-3) recruitment by the peroxisome proliferator-activated receptor gamma (PPAR gamma): non-selective agonists. [Related pubchem assays: 1301 (Confirmation screen.), 1048 (Primary screen.)]; format: functional
[36] = target: Peroxisome proliferator-activated receptor gamma/Nuclear receptor coactivator 1 (Homo sapiens, UniProt P37231); assay: TR-FRET dose response biochemical High Throughput Screening assay for agonists of the steroid receptor coactivator 1 (SRC-1) recruitment by the peroxisome proliferator-activated receptor gamma (PPAR gamma): non-selective agonists. [Related pubchem assays (depositor defined):AID1300, AID1808, AID504735, AID631]; format: protein assay
[37] = target: Peroxisome proliferator-activated receptor gamma/Nuclear receptor coactivator 2 (Homo sapiens, UniProt P37231); assay: TR-FRET dose response biochemical High Throughput Screening assay for agonists of the steroid receptor coactivator 2 (SRC-2) recruitment by the peroxisome proliferator-activated receptor gamma (PPAR gamma): non-selective agonists. [Related pubchem assays: 1297, 1032 ]; format: functional
[38] = target: Photoreceptor-specific nuclear receptor (Homo sapiens, UniProt Q9Y5X4); assay: ligands suppressing NR2E3 nuclear receptor activity – biochemical, TR-FRET, dose response (AID 463256); format: functional
Photoreceptor-specific nuclear receptor, sequence (Q9Y5X4 whole entry): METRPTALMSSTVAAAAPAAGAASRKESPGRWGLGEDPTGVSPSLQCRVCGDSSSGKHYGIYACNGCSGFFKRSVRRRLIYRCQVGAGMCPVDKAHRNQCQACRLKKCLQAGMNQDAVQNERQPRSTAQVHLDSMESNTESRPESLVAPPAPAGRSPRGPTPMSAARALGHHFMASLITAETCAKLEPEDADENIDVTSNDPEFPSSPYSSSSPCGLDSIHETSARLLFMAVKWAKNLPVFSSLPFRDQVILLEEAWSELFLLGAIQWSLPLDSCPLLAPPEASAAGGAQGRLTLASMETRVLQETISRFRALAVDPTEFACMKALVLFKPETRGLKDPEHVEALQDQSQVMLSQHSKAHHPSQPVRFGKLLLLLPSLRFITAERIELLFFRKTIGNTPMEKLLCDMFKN

[39] = Late stage results for the probe development effort to identify inhibitors of Plasmodium falciparum gametocytes: Luminescence-based cell-based high throughput dose response assay to identify inhibitors of viability of late stage Plasmodium falciparum gametocytes.; format: functional
[40] = target: RNA-editing ligase 1, mitochondrial (Trypanosoma brucei brucei, UniProt P86926); assay: inhibition of trypanosome RNA editing ligase – biochemical, fluorescence, Trypanosoma brucei, dose response (AID 1117295); format: functional
RNA-editing ligase 1, mitochondrial, sequence (P86926 whole entry): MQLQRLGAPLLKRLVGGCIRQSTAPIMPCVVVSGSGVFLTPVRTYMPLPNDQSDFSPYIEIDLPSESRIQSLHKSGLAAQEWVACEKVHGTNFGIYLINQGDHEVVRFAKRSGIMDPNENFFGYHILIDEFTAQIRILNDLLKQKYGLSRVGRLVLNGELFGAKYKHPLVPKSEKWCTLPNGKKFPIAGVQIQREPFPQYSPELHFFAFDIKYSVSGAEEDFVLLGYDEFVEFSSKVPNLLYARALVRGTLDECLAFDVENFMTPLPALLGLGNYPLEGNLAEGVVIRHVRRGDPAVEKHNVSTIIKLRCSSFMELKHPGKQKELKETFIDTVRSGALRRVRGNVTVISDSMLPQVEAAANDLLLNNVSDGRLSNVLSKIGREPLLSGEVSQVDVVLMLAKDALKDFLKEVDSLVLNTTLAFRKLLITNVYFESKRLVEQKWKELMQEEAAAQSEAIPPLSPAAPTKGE

## O=C(O)c1sc2cc(C(F)(F)F)cnc2c1-c1cccs1
[1]
  IC50: > 30 µM (not active)

## CN1c2ccc(-c3cccc(F)c3)cc2[C@H]2[C@H](CCN2C(=O)Nc2ccccc2F)[C@H]1CO
[2]
  AC50: > 47 µM (inactive)

## C#CCOC(C(=O)OCCN(C)C)(c1ccccc1)c1ccccc1
[3]
  IC50: 9.26 µM (inactive)
cells
  IC50: 9.67 µM (inactive)

## O=C(Nc1ccc([N+](=O)[O-])cc1Cl)c1cc(Cl)ccc1O [NICLOSAMIDE]
[4]
  IC50: > 80 µM (inactive)
[5]
  IC50: 0.00349 µM (active)
[6]
  IC50: 0.00144 µM (active)
[7]
  AC50: 1.62 µM (active)
[8]
  IC50: 0.00826 µM (active)
[9]
  IC50: 0.00295 µM (active)
[10]
  AC50: 3 µM (active)
[11]
  IC50: > 10 µM (inactive)
[12]
  IC50: > 10 µM (inactive)
[13]
  AC50: 0.837 µM (active)

## COc1ccc(C(=O)CC(=O)C(=O)Nc2ccccc2OC)cc1
[14]
  EC50: 8.33 µM (active)

## C[C@H]1CN([C@@H](C)CO)C(=O)c2cccc(NC(=O)c3ccncc3)c2O[C@@H]1CN(C)Cc1ccccc1
[15]
  IC50: 35.1 µM (inactive)
[16]
  IC50: > 100 µM (inactive)
[17]
  AC50: 0.0123 µM (active)
[18]
  IC50: 0.00942 µM (active)
[19]
  AC50: 0.08 µM (active)
[20]
  IC50: 4.83 µM (inactive)
[21]
  IC50: 4.83 µM (inactive)
[22]
  IC50: 84.4 µM (inactive)
[23]
  AC50: 0.0123 µM (active)

## C[C@H](CO)N1C[C@H](C)[C@@H](CN(C)Cc2ccc(C(F)(F)F)cc2)OCCCC[C@H](C)Oc2ccc(NS(=O)(=O)c3ccc(F)cc3)cc2C1=O
Paired box protein Pax-8
  AC50: 6.28 µM (active)
[24]
  AC50: 24.3 µM (active)
[25]
  AC50: 40.5 µM (active)
[26]
  AC50: 68.3 µM (active)
[27]
  AC50: 55.1 µM (active)
[28]
  AC50: 37.7 µM (active)
[29]
  AC50: 18.8 µM (active)

## O=C(Nc1cccc(Cl)c1)c1cccnn1
[30]
  EC50: 0.583 µM (active)

## N#Cc1c(N)nc2c(c1-c1cccc(O)c1)CCCCCC2
[31]
  AC50: 5.01 µM (active)
[32]
  EC50: 13.8 µM (not active)

## CSc1nc2c(cnn2-c2ccc(C)c(C)c2)c(=O)[nH]1
[33]
  IC50: > 50 µM (not active)

## Cc1cc2nc(-c3ccc(SCC(=O)Nc4ccc(S(=O)(=O)N5CCCC5)cc4)nc3)[nH]c2cc1C
[34]
  IC50: 2.07 µM (active)
[35]
  EC50: > 79.4 µM (not active)
[36]
  EC50: 11.6 µM (inactive)
[37]
  EC50: 11.1 µM (not active)
[38]
  IC50: > 39.8 µM (not active)

## O=C(NC1=NCCS1)c1cn(-c2ccccc2)nc1-c1cccnc1
[39]
  IC50: > 74.4 µM (inactive)

## COc1cccc(C(=O)NCCS(=O)(=O)NC(C)CCc2ccccc2)c1 (configuration not stated)
[40]
  IC50: > 96.6 µM (inactive)
